Assay: in vitro
Conditions: human, hela cells, % viability

Question: With COCCn1c(SCc2cn3cc(Br)ccc3n2)nc(C)c1C [CBK305704] as the molecule, how does the viability at 28.5 h, 10 µM read?
Answer: 83.1%

Question: For CS(=O)(=O)Nc1ccc2c(ccn2Cc2ccccc2)c1 [CBK159527], which viability at 28.5 h, 10 µM is on record?
Answer: 104%

Question: With CN(C)CCC1OC(=O)N(c2ccccc2)C1=O (stereo not shown) [CBK010134C] as the molecule, how does the viability at 28.5 h, 10 µM read?
Answer: 107%

Question: With Oc1cccnc1N1CCNCC1 [CBK045850] as the molecule, how does the viability at 28.5 h, 10 µM read?
Answer: 88.8%

Question: With COc1ccc([C@H]2CN(C(=O)c3ccccc3)[C@@H]3CCN(Cc4ccsc4)C[C@H]23)cc1 [CBK285585] as the molecule, how does the viability at 28.5 h, 10 µM read?
Answer: 103%

Question: Which viability at 28.5 h, 10 µM does the source give for CCNC(=O)N(C)c1c(CC)nc2c(OCC3CCCCC3)cccn12 [CBK147795] here?
Answer: 108%

Question: For O=c1[nH]c2ncc(-c3cccc(Br)c3)nc2n1Cc1ccccn1 [CBK065020], which viability at 28.5 h, 10 µM is on record?
Answer: 101%

Question: Which viability at 28.5 h, 10 µM does the source give for Cc1nc(-c2ccccc2)sc1C(=O)C1=C(O)C(=O)N(CCN(C)C)C1c1ccc(Cl)cc1 (stereo not shown) [CBK266595] here?
Answer: 110%

Question: Which viability at 28.5 h, 10 µM does the source give for O=c1[nH]c(CSc2nnc(COc3ccccc3)o2)nc2ccccc12 [CBK269869] here?
Answer: 84.9%

Question: Which viability at 28.5 h, 10 µM does the source give for Cc1cccc(-c2ncc(NC(=O)c3cccc(N(C)C)c3)nc2-c2ccco2)c1 [CBK036654] here?
Answer: 103%

Question: For O=C(NCCn1nc(-c2cccs2)oc1=O)C1CCCC1 [CBK282345], which viability at 28.5 h, 10 µM is on record?
Answer: 105%

Question: With CC1=C(C(=O)OCC(C)C)C(c2ccc(C)cc2)N2C(=O)C(C)SC2=N1 (stereo not shown) [CBK091646] as the molecule, how does the viability at 28.5 h, 10 µM read?
Answer: 92.8%

Question: Which viability at 28.5 h, 10 µM does the source give for c1ccc(N2CCN(c3cc(-c4cc5ccccc5s4)ncn3)CC2)nc1 [CBK091084] here?
Answer: 102%

Question: For C[C@@H](Cn1nc(-c2cccs2)oc1=O)NC(=O)C1CCCC1 [CBK284337], which viability at 28.5 h, 10 µM is on record?
Answer: 86.5%

Question: With CC1(C)CC(NC(=O)C(=O)NC2CC(C)(C)NC(C)(C)C2)CC(C)(C)N1 [CBK261951] as the molecule, how does the viability at 28.5 h, 10 µM read?
Answer: 98.9%

Question: For Cc1ccc(NC(=O)C2CC(=O)Nc3nc4ccccc4n32)cc1 (stereo not shown) [CBK288134], which viability at 28.5 h, 10 µM is on record?
Answer: 113%

Question: For COc1ccc(C(=O)Cn2nc3nnc(-c4ccccc4)c(-c4ccccc4)n3c2=O)cc1 [CBK286181], which viability at 28.5 h, 10 µM is on record?
Answer: 83.4%

Question: For CN(C(=O)CCn1c(=O)oc2cc(Cl)ccc21)C1CCNC1 (stereo not shown) [CBK304310C], which viability at 28.5 h, 10 µM is on record?
Answer: 101%

Question: Which viability at 28.5 h, 10 µM does the source give for O=C(O)c1ccc2c(c1)C(=O)N(c1cccnc1)C2=O [CBK287173] here?
Answer: 84.3%

Question: Which viability at 28.5 h, 10 µM does the source give for C(=C\CSC1=NCCN1)/CSC1=NCCN1 [CBK264266] here?
Answer: 107%

Question: With Cc1nn(-c2ccccn2)c(N)c1C1CC(=O)N(c2ccc(C(=O)O)cc2)C1=O (stereo not shown) [CBK291180] as the molecule, how does the viability at 28.5 h, 10 µM read?
Answer: 95.2%

Question: With c1cnc(NCc2cc3n(n2)CCN(CC2CCCCO2)C3)cn1 (stereo not shown) [CBK306891] as the molecule, how does the viability at 28.5 h, 10 µM read?
Answer: 96.4%

Question: Which viability at 28.5 h, 10 µM does the source give for CSCC(CSC)OC(=O)Nc1ccc(Cl)cc1 [CBK086154] here?
Answer: 93.9%

Question: For O=C(c1cc2c(s1)CCC2)N1CCn2c(nnc2C2CC2)C1 [CBK283770], which viability at 28.5 h, 10 µM is on record?
Answer: 96.6%

Question: For CC1(C)CC(=O)C2=C(C1)NC(Nc1nc3ccccc3s1)=NC2c1cccnc1 (stereo not shown) [CBK270025], which viability at 28.5 h, 10 µM is on record?
Answer: 99.4%

Question: Which viability at 28.5 h, 10 µM does the source give for CCN(CC(=O)NCc1ccc(F)cc1)C(=O)c1ccc(C#N)cc1 [CBK305841] here?
Answer: 100%

Question: For Cc1ccc(CCC2CCN(C(=O)c3ccc(O)nc3)CC2)cc1 [CBK296724], which viability at 28.5 h, 10 µM is on record?
Answer: 94.4%

Question: Which viability at 28.5 h, 10 µM does the source give for CCC(=O)c1cc(F)c(N2CCN(C(=O)c3cccs3)CC2)cc1C [CBK033892] here?
Answer: 104%

Question: Which viability at 28.5 h, 10 µM does the source give for Cc1ccc(S(=O)(=O)Nc2nnc(C(C)C)s2)cc1 [CBK045528] here?
Answer: 108%

Question: With c1cncc(CCOc2nccnc2N2CCNCC2)c1 [CBK014992] as the molecule, how does the viability at 28.5 h, 10 µM read?
Answer: 101%

Question: For Fc1cccc(Sc2nnnn2-c2ccccc2)c1 [CBK002906], which viability at 28.5 h, 10 µM is on record?
Answer: 108%

Question: Which viability at 28.5 h, 10 µM does the source give for Nc1ncc(-c2ccc(CN3CCOCC3)cc2)nc1-c1ccc(O)cc1 [CBK123798] here?
Answer: 93.9%

Question: Which viability at 28.5 h, 10 µM does the source give for O=C(c1nccs1)C1CCN(C(=O)Cc2ccsc2)CC1 [CBK284176] here?
Answer: 95.5%

Question: Which viability at 28.5 h, 10 µM does the source give for C[C@H]1CC[C@H](C(=O)N2CCC[C@H]2C(=O)O)CC1 [CBK028320] here?
Answer: 81.9%

Question: With CC(=O)c1ccc(-c2ccc(C(=O)N(C)CCN(C)C)c(N(C)C)n2)s1 [CBK106071] as the molecule, how does the viability at 28.5 h, 10 µM read?
Answer: 85.6%

Question: Which viability at 28.5 h, 10 µM does the source give for C/C(=N\NC(=O)c1nc(-c2ccccc2)cc(-c2ccccc2)n1)c1cccnc1 [CBK262827] here?
Answer: 90.2%

Question: For COc1cccc(/C=N/NC(=O)C(=O)NCc2ccccn2)c1O [CBK262097], which viability at 28.5 h, 10 µM is on record?
Answer: 93.5%

Question: For CC(O)CNC(=O)C1(c2ccccc2)CCCC1 (stereo not shown) [CBK149542], which viability at 28.5 h, 10 µM is on record?
Answer: 96%

Question: Which viability at 28.5 h, 10 µM does the source give for CNC(=O)C1(Cc2ccc(-c3ccccc3)cc2)CCN(C(=O)Cc2ccccc2)CC1 [CBK285764] here?
Answer: 103%

Question: With COCCNC(=O)c1ccc(-c2ccc(OC)cc2)nc1N1CCN(C(=O)c2ccco2)CC1 [CBK106010] as the molecule, how does the viability at 28.5 h, 10 µM read?
Answer: 88.1%

Question: With CC(=O)Nc1ccc(C(=O)CSc2nc(-c3ccccc3)cs2)cc1 [CBK268038] as the molecule, how does the viability at 28.5 h, 10 µM read?
Answer: 101%

Question: With Cn1c(=O)c(C(=O)Nc2ccccc2S(N)(=O)=O)c(O)c2ccccc21 [CBK262267] as the molecule, how does the viability at 28.5 h, 10 µM read?
Answer: 85.5%

Question: For CCOc1ccnc(N2CCN(C(=O)CCc3ccsc3)CC2)n1 [CBK304942], which viability at 28.5 h, 10 µM is on record?
Answer: 99.4%

Question: With CC(=O)N1CCC(N2C[C@H](O)C[C@H]2c2nc(-c3cccc([N+](=O)[O-])c3)no2)CC1 [CBK288846] as the molecule, how does the viability at 28.5 h, 10 µM read?
Answer: 90.5%

Question: With Cc1cccc(OCCNC(=O)CN2CCCC2Cn2cncn2)c1 (stereo not shown) [CBK305345] as the molecule, how does the viability at 28.5 h, 10 µM read?
Answer: 102%

Question: Which viability at 28.5 h, 10 µM does the source give for COc1cccc(CS(=O)(=O)c2c(Br)sc3ccnc(N4CCNCC4)c23)c1 [CBK038956C] here?
Answer: 95.1%

Question: With Cc1ccc(S(=O)(=O)N(CC(O)CN2CCCCC2)c2ccccc2)cc1 (stereo not shown) [CBK263570] as the molecule, how does the viability at 28.5 h, 10 µM read?
Answer: 97.7%

Question: For COc1ccc(CCNC(=O)c2cnc3sc(C)cn3c2=O)cc1OC [CBK287709], which viability at 28.5 h, 10 µM is on record?
Answer: 104%

Question: Which viability at 28.5 h, 10 µM does the source give for COc1ccc2nc(NC(=O)c3cnc(-c4ccc(Cl)cc4)c(-c4cccnc4)c3)sc2c1 [CBK037576] here?
Answer: 105%

Question: Which viability at 28.5 h, 10 µM does the source give for CC(=O)NCCn1cc2c(n1)[C@H]1CN(C(=O)C3CCC3)C[C@H]1CC2 [CBK284584] here?
Answer: 107%

Question: With Cc1cc(Br)ccc1C(=O)N1CC(C(N)=O)CCC1C (stereo not shown) [CBK305954] as the molecule, how does the viability at 28.5 h, 10 µM read?
Answer: 83.2%

Question: With CC(=O)NC(=S)Nc1ccc(Oc2ccccc2)cc1 [CBK288454] as the molecule, how does the viability at 28.5 h, 10 µM read?
Answer: 86.6%

Question: Which viability at 28.5 h, 10 µM does the source give for CCc1nccn1C(C)C(=O)Nc1ccc2ncn(C)c2c1 (stereo not shown) [CBK281745] here?
Answer: 107%

Question: For COc1ccc(-c2c[nH]c([C@@H]3COCCN3Cc3ccccc3O)n2)cc1 [CBK289296], which viability at 28.5 h, 10 µM is on record?
Answer: 85.1%

Question: With Cc1ccc(NC(=O)CSc2nc3ccccc3c(=O)n2Cc2ccco2)cc1Cl [CBK265606] as the molecule, how does the viability at 28.5 h, 10 µM read?
Answer: 102%

Question: Which viability at 28.5 h, 10 µM does the source give for O=[N+]([O-])c1ccn(C2CC(O)C(CO)O2)c1 (stereo not shown) [CBK201229] here?
Answer: 83.7%

Question: Which viability at 28.5 h, 10 µM does the source give for CCOC(=O)c1c(-c2ccc(C)o2)csc1NC(=O)CN1C(=O)c2ccccc2C1=O [CBK267699] here?
Answer: 85.1%

Question: With Cc1noc2nc(C3CCN(C(=O)C(C)C)CC3)cc(C(F)F)c12 [CBK285305] as the molecule, how does the viability at 28.5 h, 10 µM read?
Answer: 79.9%

Question: With Cc1onc(-c2ccccc2)c1C(=O)N1CCC1 [CBK160450] as the molecule, how does the viability at 28.5 h, 10 µM read?
Answer: 90.6%

Question: With COc1ccccc1CCCNC(=O)CC1CCCCN1C (stereo not shown) [CBK282694] as the molecule, how does the viability at 28.5 h, 10 µM read?
Answer: 101%

Question: With O=C(c1ccc(S(=O)(=O)N2CCCCCC2)cc1)N1CCC(CN2C(=O)c3cccc4cccc(c34)C2=O)CC1 [CBK263835] as the molecule, how does the viability at 28.5 h, 10 µM read?
Answer: 98.1%

Question: With Cc1ccccc1OCc1nnc(SCC(N)=O)n1-c1ccccc1 [CBK268808] as the molecule, how does the viability at 28.5 h, 10 µM read?
Answer: 101%

Question: Which viability at 28.5 h, 10 µM does the source give for COc1ccc(Nc2nccc3c2nnn3C)cc1 [CBK287879] here?
Answer: 80.9%

Same assay, conditions: human, hela cells, % viability, bulk resorufin, single well

Question: Which viability at 28.5 h, 10 µM does the source give for CCOC(=O)C1(c2ccccc2)CCN(C(=O)N(CCN)CCC(C)c2ccccc2)CC1 (stereo not shown) [CBK002129C] here?
Answer: 82.6%
